“Also recorded” adds a separate entry of the source.
Columns and labels:
MCF-7 cells [1] = assay: Annexin V-FITC/PI double staining flow cytometry, apoptosis and necrosis; format: cell-based, human; conditions: MCF-7 treated at IC50 concentration, 24 h; for % Late apoptosis: untreated control 0.33%; for % Early apoptosis: untreated control 0.37%; for % Necrosis: untreated control 1.15%; for % Total apoptosis: untreated control 1.85%
Excerpt: Apoptosis, which is a programmed cell death, is considered as an important way to express cell death among anticancer agents. Most of the anticancer agents can induce apoptosis in cancerous cells. To examine whether the potent cytotoxic effect of 11, 12, 13 and 27 was attributed to apoptosis or necrosis, annexin V-FITC propidium iodide (PI) double staining flow cytometry assay was applied. […] The cells were then stained with annexin V-FITC propidium iodide (PI) and the percentage of apoptotic cells was determined by flow cytometry. […] Compounds 11, 12, 13 and 27 induced necrotic effect 5.74%, 7.23%, 6.39% and 2.07%, respectively in comparison to the untreated negative control MCF-7 cells (1.15%).
Cell death by apoptosis was detected by flow cytometric method using Annexin-V/FITC propidium iodide Apoptosis Detection Kit Catalog #: K101-25; Biovision, USA). MCF-7 cells were seeded at a density of 2 × 10 ^5 cells/well in 24-well plate, treated with the test compounds 11, 12, 13 and 27 at different concentrations and incubated at 37 °C for 24 h in 5% CO2 atmosphere. Cells were collected and suspended in 500 µl binding buffer and then 5 µl of Annexin V-FITC and 5 µl of PI were added and mixed. The mixture was incubated for 5 min in the dark at room temperature. Cell apoptosis analyses were performed using FACSCalibur (Becton Dickinson FACS, San Jose, CA) flow cytometer.

MDA-MB-231 = assay: In vitro cytotoxicity screening, MTT assay; conditions: Homo sapiens, MDA-MB-231, 24 h, read-out: In vitro Cytotoxicity (IC50, µM) MDA-MB-231
Excerpt: Two human breast cancer cell lines, namely, MDA-MB-231 and MCF-7 were obtained from American Type Culture Collection (ATCC) via a holding company for biological products and vaccines (VACSERA), Cairo, Egypt. […] The reagents used were RPMI-1640 medium, MTT, DMSO (sigma co., St. Louis, USA), and Fetal bovine serum (GIBCO, UK). […] MTT is a colorimetric assay based on the conversion of the yellow tetrazolium bromide (MTT) to a purple formazan derivative by mitochondrial succinate dehydrogenase in viable cells. Cell lines were cultured in RPMI-1640 medium with 10% foetal bovine serum. Antibiotics added were 100 units/ml penicillin and 100 µg/ml streptomycin maintained at 37 °C in a 5% CO2 incubator. The cell lines were seeded at a density of approximately 1.0 × 10 ^4 cells/well in a 96-well plate at 37 °C for 48 h under 5% CO2. Different concentrations of compounds were added and incubated for 24 h. After 24 h of drug treatment, 20 µl of MTT staining solution at 5 mg/ml was added to each well and incubated for 4 h at 37 °C. After 4 h, 100 µl of dimethyl sulfoxide (DMSO) were added into each well to dissolve the purple formazan crystals formed. The absorbance was recorded at 570 nm using a plate reader (EXL 800, USA). The relative cell viability in percentage was calculated as (A570 of treated samples/A570 of untreated sample) X 100 [22],[23].

MCF-7 cells [2] = assay: Cell cycle analysis by flow cytometry (PI staining); format: cell-based, human; conditions: MCF-7 treated at IC50 concentration; for percentage of cells in pre-G1 phase (%Pre-G1) / percentage of cells in G2/M phase (%G2/M) / percentage of cells in S phase (%S) / percentage of cells in G0/G1 phase (%G0-G1): 24 h; for percentage of cells in pre-G1 phase (%Pre-G1): untreated control 1.85%; for percentage of cells in G2/M phase (%G2/M): untreated control 11.84%; for percentage of cells in S phase (%S): untreated control 29.95%; for percentage of cells in G0/G1 phase (%G0-G1): untreated control 58.21%
Method: For further investigation of the promising antiproliferative activity of compounds 11, 12, 13 and 27 on breast cancer MCF-7 cell line, cell cycle analysis was carried out using flow cytometric assay. […] The flow cytometric assay results were compared to the negative control untreated MCF-7 cell line.
MCF-7 cells were seeded in 24-well plate at a density of 2 × 10^5 cells/well, treated with the test compounds 11, 12, 13 and 27 at different concentrations and incubated at 37 °C for 24 h in 5% CO2 atmosphere. The cells were washed with ice-cold phosphate buffer saline (PBS) twice and fixed in 70% ice-cold ethanol overnight and then suspended in (PBS) containing PI (DNA staining solution) at concentration of 50 µg/mL, 0.1 mg/mL RNAase A (Sigma, USA) and 0.05% Triton X-100. Cells were analysed by flow cytometry after 30 min at 37 n the dark using FACSCalibur (Becton Dickinson FACS, San Jose, CA) flow cytometer. The cell cycle distributions were measured using Cell-Quest software.
Suppl. S3. Cell cycle analysis for compounds 11, 12, 13 and 27 […]
Assay : Cell Cycle Analysis
Kit used : ab139418_Propidium Iodide Flow Cytometry Kit/BD
Assay samples : Cell culture
Table S3. Cell cycle phase distribution in MCF-7 cell line treated with vehicle control and the newly synthesised compounds; 11, 12, 13 and 27. […]

PARP-2 enzyme = target: T1, PARP-2 enzyme (Homo sapiens, UniProt Q9UGN5); assay: Poly (ADP-ribose) polymerase 2 (PARP-2) inhibition assay (colorimetric kit); format: biochemical; conditions: for IC50: in vitro enzyme assay
T1 construct: purchased BPS Bioscience 80,581
Method: Results were expressed as IC50 values (Table 2).
The PARP-2 inhibitory activity of the test compounds was assayed using PARP-2 Colorimetric Activity Assay Kit (BPS Bioscience, catalog 80,581, San Diego, CA, USA) following the manufacturer’s protocol. Briefly, histone protein mixture was coated on a 96-well microtiter plate and incubated at 4 °C overnight, washed with phosphate-buffered saline with tween-20 (PBST) three times then, the wells were blocked by adding blocking buffer 3 and incubated at room temperature for 60–90 min. After that, the plate was washed with PBST buffer three times. The master mixture which contains the PARP buffer, PARP assay mixture, activated DNA and distilled water was added to each well then, the inhibitor solution (test compound) was added. The reaction was initiated by adding PARP-2 enzyme to the wells and the plate was incubated for 1 h at room temperature. After 1 h, the reaction mixture was discarded, and the plate was washed with PBST buffer three times. Finally, the plate was treated with Streptavidin–Horseradish Peroxidase (HRP) and incubated for 30 min at room temperature and then washed with PBST buffer. The colorimetric HRP substrate was added to each well and incubated at room temperature until the positive control well developed blue color. Sulphuric acid was added to each well after the blue color development. The absorbance was read at 450 nm using UV/Vis spectrophotometer microplate reader.
Suppl. S2. In vitro PARP-2 enzyme inhibition assay
Researcher : Dr. Nadeen Ghobashy email:elghobashynadeen@gmail.com mob.01008873340
Reader : ROBONIK P2000 Eliza Reader wl 450 nm

T1 sequence (Q9UGN5 whole entry): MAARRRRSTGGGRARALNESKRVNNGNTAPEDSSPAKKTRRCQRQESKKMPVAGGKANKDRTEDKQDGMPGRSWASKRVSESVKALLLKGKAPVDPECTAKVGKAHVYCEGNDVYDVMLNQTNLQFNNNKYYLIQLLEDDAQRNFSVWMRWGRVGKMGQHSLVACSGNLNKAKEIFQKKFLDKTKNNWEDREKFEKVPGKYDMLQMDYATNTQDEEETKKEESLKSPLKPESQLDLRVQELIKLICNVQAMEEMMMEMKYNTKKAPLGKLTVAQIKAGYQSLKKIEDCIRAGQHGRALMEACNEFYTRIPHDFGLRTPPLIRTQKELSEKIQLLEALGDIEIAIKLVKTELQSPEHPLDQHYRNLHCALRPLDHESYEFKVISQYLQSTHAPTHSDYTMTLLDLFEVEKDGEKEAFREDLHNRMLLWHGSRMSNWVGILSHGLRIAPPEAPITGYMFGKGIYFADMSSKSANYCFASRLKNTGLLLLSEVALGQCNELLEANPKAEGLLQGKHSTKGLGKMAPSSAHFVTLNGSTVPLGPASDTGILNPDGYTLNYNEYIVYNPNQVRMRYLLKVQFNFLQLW

O=C(CCN1CCCCC1)Nc1ccc(-c2nc3cc(Cl)ccc3o2)cc1 [Compound 11, N-(4-(5-chlorobenzoxazol-2-yl)phenyl)-3-(piperidin-1-yl)propanamide] was tested, and the “% Late apoptosis” value (MCF-7 cells [1]) was 23.02%, the “% Early apoptosis” value (MCF-7 cells [1]) was 16.31% and the “% Necrosis” value (MCF-7 cells [1]) was 5.74%. The “% Total apoptosis” value (MCF-7 cells [1]) was 45.07%, the IC50 (MDA-MB-231) was 5.63 ± 0.3 µM and the “cell cycle arrest phase” value (MCF-7 cells [2]) was “cell growth arrest@ G1; also recorded: cell cycle arrest at G0/G1 phase”. The “percentage of cells in pre-G1 phase (%Pre-G1)” value (shortened to “percentage of cells … (%Pre-G1)”) (MCF-7 cells [2]) was 45.07%, the “percentage of cells in G2/M phase (%G2/M)” value (from here on “percentage … (%G2/M)”) (MCF-7 cells [2]) was 7.22% and the “percentage of cells in S phase (%S)” value (MCF-7 cells [2]) was 24.76%. The “percentage of cells in G0/G1 phase (%G0-G1)” value (“percentage of cells … (%G0-G1)” for short) (MCF-7 cells [2]) was 68.02%, the “%inh of PARP-2 (Table S2 raw data)” value (PARP-2 enzyme; conc 0.01 (ng/ml)) was 28.75% and the “%inh of PARP-2 (Table S2 raw data)” value (PARP-2 enzyme; conc 0.1 (ng/ml)) was 43.61%. For the same compound, the “%inh of PARP-2 (Table S2 raw data)” value (PARP-2 enzyme; conc 1 (ng/ml)) was 58.88%, the “%inh of PARP-2 (Table S2 raw data)” value (PARP-2 enzyme; conc 10 (ng/ml)) was 84.97% and the IC50 (PARP-2 enzyme) was 190 ± 10 nM.
In the case of CCN(CC)CCC(=O)Nc1ccc(-c2nc3cc(Cl)ccc3o2)cc1 [Compound 27, N-(4-(5-chlorobenzoxazol-2-yl)phenyl)-3-(diethylamino)propanamide], the “% Late apoptosis” value (MCF-7 cells [1]) is reported as 4.58%, the “% Early apoptosis” value (MCF-7 cells [1]) is reported as 19.26% and the “% Necrosis” value (MCF-7 cells [1]) is reported as 2.07%. For the same compound, the “% Total apoptosis” value (MCF-7 cells [1]) was 25.91%, the IC50 (MDA-MB-231) was 11.3 ± 0.9 µM and the “percentage of cells … (%Pre-G1)” value (MCF-7 cells [2]) was 25.91%. For the same compound, the “percentage … (%G2/M)” value (MCF-7 cells [2]) was 4.46%, the “percentage of cells in S phase (%S)” value (MCF-7 cells [2]) was 33.16% and the “percentage of cells … (%G0-G1)” value (MCF-7 cells [2]) was 62.38%. The “%inh of PARP-2 (Table S2 raw data)” value (PARP-2 enzyme; conc 0.01 (ng/ml)) was 37.25%, the “%inh of PARP-2 (Table S2 raw data)” value (PARP-2 enzyme; conc 0.1 (ng/ml)) was 52.67% and the “%inh of PARP-2 (Table S2 raw data)” value (PARP-2 enzyme; conc 1 (ng/ml)) was 73.48%. For the same compound, the “%inh of PARP-2 (Table S2 raw data)” value (PARP-2 enzyme; conc 10 (ng/ml)) was 88.84% and the IC50 (PARP-2 enzyme) was 57 ± 3 nM.
In the case of CN1CCN(CCC(=O)Nc2ccc(-c3nc4cc(Cl)ccc4o3)cc2)CC1 [Compound 13, N-(4-(5-chlorobenzoxazol-2-yl)phenyl)-3-(4-methylpiperazin-1-yl)propanamide], the “% Late apoptosis” value (MCF-7 cells [1]) is reported as 10.99%, the “% Early apoptosis” value (MCF-7 cells [1]) is reported as 12.28% and the “% Necrosis” value (MCF-7 cells [1]) is reported as 6.39%. For the same compound, the “% Total apoptosis” value (MCF-7 cells [1]) was 29.66%, the IC50 (MDA-MB-231) was 7.52 ± 0.6 µM and the “cell cycle arrest phase” value (MCF-7 cells [2]) was “cell growth arrest@ G2/M; also recorded: cell cycle arrest at G2/M phase”. For the same compound, the “percentage of cells … (%Pre-G1)” value (MCF-7 cells [2]) was 29.66%, the “percentage … (%G2/M)” value (MCF-7 cells [2]) was 26.51% and the “percentage of cells in S phase (%S)” value (MCF-7 cells [2]) was 28.51%. The “percentage of cells … (%G0-G1)” value (MCF-7 cells [2]) was 44.98%, the “%inh of PARP-2 (Table S2 raw data)” value (PARP-2 enzyme; conc 0.01 (ng/ml)) was 30.58% and the “%inh of PARP-2 (Table S2 raw data)” value (PARP-2 enzyme; conc 0.1 (ng/ml)) was 46.82%. The “%inh of PARP-2 (Table S2 raw data)” value (PARP-2 enzyme; conc 1 (ng/ml)) was 71.31%, the “%inh of PARP-2 (Table S2 raw data)” value (PARP-2 enzyme; conc 10 (ng/ml)) was 88.69% and the IC50 (PARP-2 enzyme) was 106 ± 6 nM.
O=C(CCN1CCOCC1)Nc1ccc(-c2nc3cc(Cl)ccc3o2)cc1 [Compound 12, N-(4-(5-chlorobenzoxazol-2-yl)phenyl)-3-morpholinopropanamide] was tested, and the “% Late apoptosis” value (MCF-7 cells [1]) was 3.72%, the “% Early apoptosis” value (MCF-7 cells [1]) was 22.52% and the “% Necrosis” value (MCF-7 cells [1]) was 7.23%. For the same compound, the “% Total apoptosis” value (MCF-7 cells [1]) was 33.47%, the IC50 (MDA-MB-231) was 6.14 ± 0.5 µM and the “percentage of cells … (%Pre-G1)” value (MCF-7 cells [2]) was 33.47%. For the same compound, the “percentage … (%G2/M)” value (MCF-7 cells [2]) was 32.04%, the “percentage of cells in S phase (%S)” value (MCF-7 cells [2]) was 26.18% and the “percentage of cells … (%G0-G1)” value (MCF-7 cells [2]) was 41.78%. The “%inh of PARP-2 (Table S2 raw data)” value (PARP-2 enzyme; conc 0.01 (ng/ml)) was 35.69%, the “%inh of PARP-2 (Table S2 raw data)” value (PARP-2 enzyme; conc 0.1 (ng/ml)) was 53.11% and the “%inh of PARP-2 (Table S2 raw data)” value (PARP-2 enzyme; conc 1 (ng/ml)) was 67.93%. For the same compound, the “%inh of PARP-2 (Table S2 raw data)” value (PARP-2 enzyme; conc 10 (ng/ml)) was 90.18% and the IC50 (PARP-2 enzyme) was 70 ± 4 nM.

From PMC9519869, “Synthesis, biological evaluation, and molecular modeling studies of new benzoxazole derivatives as PARP-2 inhibitors targeting breast cancer” (Scientific Reports, 2022)
